Where two headings read alike, the source gives them in different places.
Assays:
5-HT2A [1] = target: T1, 5-HT2A (Homo sapiens, UniProt P28223); assay: NanoBiT miniGαq recruitment assay at 5-HT2A; details: 2 h AUC; for EC50: LSD as reference agonist
Target sequence in this assay (P28223 whole entry): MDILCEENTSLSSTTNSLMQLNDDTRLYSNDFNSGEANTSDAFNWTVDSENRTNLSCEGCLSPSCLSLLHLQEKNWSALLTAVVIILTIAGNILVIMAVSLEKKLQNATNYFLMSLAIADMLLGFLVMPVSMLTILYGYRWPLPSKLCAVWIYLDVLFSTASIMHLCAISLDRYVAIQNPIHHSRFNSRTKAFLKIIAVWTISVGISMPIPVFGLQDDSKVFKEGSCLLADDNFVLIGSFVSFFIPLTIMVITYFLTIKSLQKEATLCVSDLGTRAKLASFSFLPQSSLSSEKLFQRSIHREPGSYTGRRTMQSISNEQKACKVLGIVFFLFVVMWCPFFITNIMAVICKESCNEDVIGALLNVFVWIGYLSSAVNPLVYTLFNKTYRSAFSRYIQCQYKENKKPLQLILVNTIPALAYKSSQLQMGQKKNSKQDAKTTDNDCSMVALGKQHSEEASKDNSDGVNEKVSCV

5-HT2A [2] = target: T1, 5-HT2A; assay: NanoBiT βarr2 recruitment assay at 5-HT2A; details: 2 h AUC; for EC50: β-arrestin2 EC50 (nM) (95% CI)
Target sequence in this assay (P28223 whole entry): as above
Target sequence in this assay (P32121 whole entry partner): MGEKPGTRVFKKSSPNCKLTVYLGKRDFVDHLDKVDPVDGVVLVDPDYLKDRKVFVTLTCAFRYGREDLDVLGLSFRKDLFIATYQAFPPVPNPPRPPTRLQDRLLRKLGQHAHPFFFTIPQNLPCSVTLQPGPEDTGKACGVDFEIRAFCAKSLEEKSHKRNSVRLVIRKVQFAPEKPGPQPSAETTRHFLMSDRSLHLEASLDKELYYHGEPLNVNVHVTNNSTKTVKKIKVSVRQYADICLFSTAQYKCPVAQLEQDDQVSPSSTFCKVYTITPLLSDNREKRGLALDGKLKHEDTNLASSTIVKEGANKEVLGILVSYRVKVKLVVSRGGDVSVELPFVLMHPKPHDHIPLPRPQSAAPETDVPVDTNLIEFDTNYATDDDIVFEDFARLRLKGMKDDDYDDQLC

5-HT2A receptor = assay: Bias factor; details: LSD as reference agonist, 2 h AUC; positive = βarr2 preference
5-HT2A [3] = target: T1, 5-HT2A; details: PI hydrolysis assay; cited from earlier work
Target sequence in this assay (P28223 whole entry, species assumed): as the sequence (P28223 whole entry) above
Target sequence in this assay (P32121 whole entry partner, species assumed): as the sequence (P32121 whole entry partner) above

Which EC50 (5-HT2A [1]; miniGαq EC50 (nM) (95% CI)) does the source give for `CCOCc1cc(OC)c(CCN)cc1OC.Cl` [1d, 2-(4-(Ethoxymethyl)-2,5-dimethoxyphenyl)ethan-1-amine Hydrochloride] here?
The EC50 was 75 nM.

What about the EC50 (5-HT2A [2]; LSD as reference agonist) of the same compound?
Its EC50 is 26.4 nM.

And the “β (bias factor)” value (5-HT2A receptor)?
The value was 0.323.

With `COc1cc(CCN)c(OC)cc1C#N.Cl` [2C-CN (1j), 4-(2-Aminoethyl)-2,5-dimethoxybenzonitrile Hydrochloride] as the compound, how does the EC50 (5-HT2A [1]; miniGαq EC50 (nM) (95% CI)) read?
Its EC50 is 503 nM.

And the EC50 (5-HT2A [2]; LSD as reference agonist)?
Its EC50 is 174 nM.

And the “β (bias factor)” value (5-HT2A receptor)?
The value was 0.412.

What does the source list for `COc1cc(CCN)c(OC)cc1C.Cl` [2C-D (1b), 2-(2,5-Dimethoxy-4-methylphenyl)ethan-1-amine Hydrochloride]?
EC50 (5-HT2A [1]; miniGαq EC50 (nM) (95% CI)): 59.4 nM; EC50 (5-HT2A [2]; LSD as reference agonist): 16.4 nM; β (bias factor) (5-HT2A receptor): 0.372

For `COc1cc([N+](=O)[O-])c(OC)cc1CCN.Cl` [2C-N (1g), 2-(2,5-Dimethoxy-4-nitrophenyl)ethan-1-amine Hydrochloride], which EC50 (5-HT2A [1]; miniGαq EC50 (nM) (95% CI)) is on record?
The EC50 was 92.5 nM.

And the EC50 (5-HT2A [2]; LSD as reference agonist)?
The EC50 was 32.2 nM.

And the “β (bias factor)” value (5-HT2A receptor)?
Its value is 0.305.

Which EC50 (5-HT2A [1]; miniGαq EC50 (nM) (95% CI)) does the source give for `CCCc1cc(OC)c(CCN)cc1OC.Cl` [2C-P (1c), 2-(2,5-Dimethoxy-4-propylphenyl)ethan-1-amine Hydrochloride] here?
The EC50 was 37.6 nM.

What about the EC50 (5-HT2A [1]; miniGαq pEC50 (95% CI)) of the same compound?
Its EC50 is 37.2 nM.

What about the EC50 (5-HT2A [2]; LSD as reference agonist) of the same compound?
The EC50 was 10.2 nM.

What about the “β (bias factor)” value (5-HT2A receptor) of the same compound?
The value was 0.313.

For `COc1cc(SC)c(OC)cc1CCN.Cl` [2C-T (1e), 2-(2,5-Dimethoxy-4-(methylthio)phenyl)ethan-1-amine Hydrochloride], which EC50 (5-HT2A [1]; miniGαq EC50 (nM) (95% CI)) is on record?
Its EC50 is 37.1 nM.

And the EC50 (5-HT2A [2]; LSD as reference agonist)?
Its EC50 is 13.1 nM.

What about the “β (bias factor)” value (5-HT2A receptor) of the same compound?
Its value is 0.343.

Which results are given for `CCCSc1cc(OC)c(CCN)cc1OC.Cl` [2C-T-7 (1f), 2-(2,5-Dimethoxy-4-(propylthio)phenyl)ethan-1-amine Hydrochloride]?
EC50 (5-HT2A [1]; miniGαq EC50 (nM) (95% CI)): 14.3 nM; EC50 (5-HT2A [1]; miniGαq pEC50 (95% CI)): 14.1 nM; EC50 (5-HT2A [2]; LSD as reference agonist): 4.99 nM; β (bias factor) (5-HT2A receptor): 0.291

With `NCCc1c[nH]c2ccc(O)cc12` [5-HT, 5-hydroxytryptamine, reference compound] as the compound, how does the “β (bias factor)” value (5-HT2A receptor) read?
The value was 0.680.

What does the source list for `COc1cc([N+](=O)[O-])c(OC)cc1CCNCc1ccccc1F.Cl` [25N-NBF (2g), 2-(2,5-Dimethoxy-4-nitrophenyl)-N-(2-fluorobenzyl)ethan-1-amine Hydrochloride]?
EC50 (5-HT2A [1]; miniGαq EC50 (nM) (95% CI)): 74.7 nM; EC50 (5-HT2A [2]; LSD as reference agonist): 14.2 nM; β (bias factor) (5-HT2A receptor): 0.858

What does the source list for `COc1cc([N+](=O)[O-])c(OC)cc1CCNCc1cccc2c1OCO2.Cl` [25N-NBMD (2h), N-(Benzo[d][1,3]dioxol-4-ylmethyl)-2-(2,5-dimethoxy-4-nitrophenyl)ethan-1-amine Hydrochloride]?
EC50 (5-HT2A [1]; miniGαq EC50 (nM) (95% CI)): 9.32 nM; EC50 (5-HT2A [2]; LSD as reference agonist): 2 nM; β (bias factor) (5-HT2A receptor): 0.791

Which EC50 (5-HT2A [1]; miniGαq EC50 (nM) (95% CI)) does the source give for `COc1cc([N+](=O)[O-])c(OC)cc1CCNCc1ccccc1O.Cl` [25N-NBOH (2e), 2-(((2,5-Dimethoxy-4-nitrophenethyl)amino)methyl)phenol Hydrochloride] here?
The EC50 was 1.73 nM.

And the “β-arrestin2 EC50 (nM) (95% CI)” value (5-HT2A [2]; LSD as reference agonist)?
Its value is “sub-nanomolar”.

What about the EC50 (5-HT2A [2]; LSD as reference agonist) of the same compound?
The EC50 was 0.662 nM.

And the “β (bias factor)” value (5-HT2A receptor)?
Its value is 0.454.

For `COc1cc([N+](=O)[O-])c(OC)cc1CCNCc1ccccc1OC.Cl` [25N-NBOMe (2f), 2-(2,5-Dimethoxy-4-nitrophenyl)-N-(2-methoxybenzyl)ethan-1-amine Hydrochloride], which EC50 (5-HT2A [1]; miniGαq EC50 (nM) (95% CI)) is on record?
Its EC50 is 2.53 nM.

And the EC50 (5-HT2A [3])?
The EC50 was “sub-nanomolar”.

And the EC50 (5-HT2A [2]; LSD as reference agonist)?
Its EC50 is 1.09 nM.

What about the “β (bias factor)” value (5-HT2A receptor) of the same compound?
The value was 0.374.

For `CCCSc1cc(OC)c(CCNCc2ccccc2O)cc1OC.Cl` [25T7-NBOH (2c), 2-(((2,5-Dimethoxy-4-(propylthio)phenethyl)amino)methyl)phenol Hydrochloride], which EC50 (5-HT2A [1]; miniGαq EC50 (nM) (95% CI)) is on record?
Its EC50 is 17.5 nM.

What about the EC50 (5-HT2A [2]; LSD as reference agonist) of the same compound?
Its EC50 is 13.9 nM.

What about the “β (bias factor)” value (5-HT2A receptor) of the same compound?
Its value is 0.209.

What does the source list for `CCCSc1cc(OC)c(CCNCc2ccccc2OC)cc1OC.Cl` [25T7-NBOMe (2d), 2-(2,5-Dimethoxy-4-(propylthio)phenyl)-N-(2-methoxybenzyl)ethan-1-amine Hydrochloride]?
EC50 (5-HT2A [1]; miniGαq EC50 (nM) (95% CI)): 11.3 nM; EC50 (5-HT2A [2]; LSD as reference agonist): 7.42 nM; β (bias factor) (5-HT2A receptor): 0.281

With `COc1cc(SC)c(OC)cc1CCNCc1ccccc1O.Cl` [25T-NBOH (2a), 2-(((2,5-Dimethoxy-4-(methylthio)phenethyl)amino)methyl)phenol Hydrochloride] as the compound, how does the EC50 (5-HT2A [1]; miniGαq EC50 (nM) (95% CI)) read?
The EC50 was 4.45 nM.

What about the EC50 (5-HT2A [2]; LSD as reference agonist) of the same compound?
The EC50 was 1.94 nM.

What about the “β (bias factor)” value (5-HT2A receptor) of the same compound?
The value was 0.447.

For `COc1cc(SC)c(OC)cc1CCNCc1ccccc1OC.Cl` [25T-NBOMe (2b), 2-(2,5-Dimethoxy-4-(methylthio)phenyl)-N-(2-methoxybenzyl)ethan-1-amine Hydrochloride], which EC50 (5-HT2A [1]; miniGαq EC50 (nM) (95% CI)) is on record?
The EC50 was 4.22 nM.

What about the EC50 (5-HT2A [2]; LSD as reference agonist) of the same compound?
The EC50 was 2.05 nM.

What about the “β (bias factor)” value (5-HT2A receptor) of the same compound?
The value was 0.332.

For `COc1cc(SC)c(OC)cc1CC(C)N.Cl` (centres unmarked) [DOT (1h), 1-(2,5-Dimethoxy-4-(methylthio)phenyl)propan-2-amine Hydrochloride], which EC50 (5-HT2A [1]; miniGαq EC50 (nM) (95% CI)) is on record?
Its EC50 is 65.8 nM.

What about the EC50 (5-HT2A [2]; LSD as reference agonist) of the same compound?
Its EC50 is 14.5 nM.

What about the “β (bias factor)” value (5-HT2A receptor) of the same compound?
Its value is 0.436.

With `CCCSc1cc(OC)c(CC(C)N)cc1OC.Cl` (centres unmarked) [DOT-7 (1i), 1-(2,5-Dimethoxy-4-(propylthio)phenyl)propan-2-amine Hydrochloride] as the compound, how does the EC50 (5-HT2A [1]; miniGαq EC50 (nM) (95% CI)) read?
The EC50 was 7.63 nM.

What about the EC50 (5-HT2A [2]; LSD as reference agonist) of the same compound?
Its EC50 is 2.18 nM.

What about the “β (bias factor)” value (5-HT2A receptor) of the same compound?
Its value is 0.305.

With `CCN(CC)C(=O)[C@@H]1C=C2c3cccc4[nH]cc(c34)C[C@H]2N(C)C1` [LSD, lysergic acid diethylamide, reference compound] as the compound, how does the “miniGαq Emax (%) (95% CI)” value (5-HT2A [1]; normalized to Emax of LSD) read?
The value was 98.4 (90.4–107) %.

And the “β-arrestin2 Emax (%) (95% CI)” value (5-HT2A [2]; normalized to Emax of LSD)?
Its value is 99.4 (92.5–106) %.

What about the “β (bias factor)” value (5-HT2A receptor) of the same compound?
The value was 0.

— publication PMC10401645 (ACS Chemical Neuroscience, 2023)
